The test system of assay [1] is Right cardiac atrium. Kind of assay: Negative ionotropic activity in electrically-paced Cavia porcellus (guinea pig) right atrium measured after 60 min by isometric transducer analysis in presence of naloxane. It counts as functional, tissue-based.
Assay [2] concerns Left cardiac atrium. The experiment in a line: Negative ionotropic activity in electrically-paced Cavia porcellus (guinea pig) left atrium measured after 60 min by isometric transducer analysis in presence of ANR 83. The assay is classed as functional, tissue-based.
Assay [3] addresses T1, Muscarinic acetylcholine receptor M4 (Homo sapiens) (UniProt P08173).
T1 sequence (whole entry): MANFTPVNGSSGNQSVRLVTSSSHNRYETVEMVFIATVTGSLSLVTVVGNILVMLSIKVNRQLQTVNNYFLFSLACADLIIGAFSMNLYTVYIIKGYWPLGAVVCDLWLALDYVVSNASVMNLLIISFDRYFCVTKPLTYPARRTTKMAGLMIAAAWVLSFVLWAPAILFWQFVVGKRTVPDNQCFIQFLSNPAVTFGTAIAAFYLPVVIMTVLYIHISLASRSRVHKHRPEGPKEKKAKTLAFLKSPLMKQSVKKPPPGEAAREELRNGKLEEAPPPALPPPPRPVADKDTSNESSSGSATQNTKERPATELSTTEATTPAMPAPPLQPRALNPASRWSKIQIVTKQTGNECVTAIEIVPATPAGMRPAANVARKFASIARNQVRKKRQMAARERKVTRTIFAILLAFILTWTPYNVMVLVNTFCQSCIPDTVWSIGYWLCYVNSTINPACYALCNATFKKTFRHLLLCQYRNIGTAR
The experiment in a line: Binding affinity to Homo sapiens (human) recombinant muscarinic M4 receptor expressed in CHO cells assessed as [35S]GTPgammaS binding. The assay is classed as functional, cell-based.

The test system of assay [4] is Left cardiac atrium. Kind of assay: Negative ionotropic activity in electrically-paced Cavia porcellus (guinea pig) left atrium measured after 60 min by isometric transducer analysis in presence of AM 251. The assay is classed as functional, tissue-based.
Assay [5] deals with Left cardiac atrium. The experiment in a line: Negative ionotropic activity in electrically-paced Cavia porcellus (guinea pig) left atrium measured after 60 min by isometric transducer analysis in presence of benzalkonium. It counts as functional, tissue-based.
Assay [6] has as its target T2, Muscarinic acetylcholine receptor M2 (Homo sapiens) (UniProt P08172).
T2 sequence (whole entry): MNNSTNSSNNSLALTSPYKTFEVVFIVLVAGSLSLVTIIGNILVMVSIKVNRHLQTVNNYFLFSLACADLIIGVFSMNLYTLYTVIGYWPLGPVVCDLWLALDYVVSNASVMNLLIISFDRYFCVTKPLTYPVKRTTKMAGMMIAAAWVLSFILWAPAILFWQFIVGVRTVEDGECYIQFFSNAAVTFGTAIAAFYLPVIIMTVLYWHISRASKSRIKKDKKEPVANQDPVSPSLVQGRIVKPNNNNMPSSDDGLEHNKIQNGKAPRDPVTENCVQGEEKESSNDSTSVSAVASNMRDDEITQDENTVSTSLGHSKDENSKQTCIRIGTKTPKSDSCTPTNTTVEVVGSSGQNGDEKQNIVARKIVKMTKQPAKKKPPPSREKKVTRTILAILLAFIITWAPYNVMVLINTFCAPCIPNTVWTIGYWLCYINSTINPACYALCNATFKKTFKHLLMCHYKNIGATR
The experiment in a line: Allosteric modulation of Homo sapiens (human) recombinant muscarinic M2 receptor expressed in CHO cells assessed as inhibition of N-[3H]methylscopalamine dissociation at 20 uM incubated at 1 hr post N-[3H]methylscopalamine addition measured after 5 min by filter binding assay. The assay is classed as cell-based.

The target of assay [7] is T1, Muscarinic acetylcholine receptor M4 (Homo sapiens). Kind of assay: Allosteric modulation of Homo sapiens (human) recombinant muscarinic M4 receptor expressed in CHO cells assessed as inhibition of carbachol-induced [35S]GTPgammaS binding. The assay is classed as functional, cell-based.
The subject of assay [8] is Right cardiac atrium. The experiment in a line: Negative […] activity in electrically-paced Cavia porcellus (guinea pig) right atrium assessed as effect on force measured after 60 min by isometric transducer analysis in absence of benextramine/4-DAMP mustard relative to N-dodecyl lysine amide. It counts as functional.
Assay [9] deals with Left cardiac atrium. Kind of assay: Negative ionotropic activity in electrically-paced Cavia porcellus (guinea pig) left atrium measured after 60 min by isometric transducer analysis in presence of naloxane. The assay is classed as functional, tissue-based.
The test system of assay [10] is Left cardiac atrium. Kind of assay: Negative ionotropic activity in electrically-paced Cavia porcellus (guinea pig) left atrium measured after 60 min by isometric transducer analysis in presence of DPCPX. It counts as functional, tissue-based.
For assay [11], the target named is T3, Muscarinic acetylcholine receptor M5 (Homo sapiens) (UniProt P08912).
T3 sequence (whole entry): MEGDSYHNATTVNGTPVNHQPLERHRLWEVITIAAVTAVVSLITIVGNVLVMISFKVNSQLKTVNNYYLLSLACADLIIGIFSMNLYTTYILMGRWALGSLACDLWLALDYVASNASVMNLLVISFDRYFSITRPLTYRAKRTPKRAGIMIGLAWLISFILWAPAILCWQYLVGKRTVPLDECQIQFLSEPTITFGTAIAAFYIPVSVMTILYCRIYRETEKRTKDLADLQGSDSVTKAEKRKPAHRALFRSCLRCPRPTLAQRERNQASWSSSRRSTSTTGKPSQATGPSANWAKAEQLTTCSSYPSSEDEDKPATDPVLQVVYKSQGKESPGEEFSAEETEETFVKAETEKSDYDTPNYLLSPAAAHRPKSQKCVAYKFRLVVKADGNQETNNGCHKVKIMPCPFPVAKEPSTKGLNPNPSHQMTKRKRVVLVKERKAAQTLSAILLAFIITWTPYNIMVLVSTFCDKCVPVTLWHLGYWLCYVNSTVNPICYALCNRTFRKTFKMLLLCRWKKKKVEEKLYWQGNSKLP
The experiment in a line: Allosteric modulation of Homo sapiens (human) recombinant muscarinic M5 receptor expressed in CHO cells assessed as inhibition of carbachol-induced [35S]GTPgammaS binding. It counts as functional, cell-based. Background: GTPγS resists hydrolysis and so accumulates on activated G proteins.

Assay [12] deals with Right cardiac atrium. Kind of assay: Negative ionotropic activity in electrically-paced Cavia porcellus (guinea pig) right atrium measured after 60 min by isometric transducer analysis in presence of dihydroergocristine. It counts as functional, tissue-based.
Assay [13] concerns Right cardiac atrium. The experiment in a line: Negative ionotropic activity in electrically-paced Cavia porcellus (guinea pig) right atrium measured after 60 min by isometric transducer analysis in presence of AM 251. It counts as functional, tissue-based.
Assay [14] addresses T2, Muscarinic acetylcholine receptor M2 (Homo sapiens). Kind of assay: Binding affinity to Homo sapiens (human) recombinant muscarinic M2 receptor expressed in CHO cells assessed as [35S]GTPgammaS binding. The assay is classed as functional, cell-based.
The subject of assay [15] is Left cardiac atrium. The experiment in a line: Negative ionotropic activity in electrically-paced Cavia porcellus (guinea pig) left atrium measured after 60 min by isometric transducer analysis in presence of AM 630. The assay is classed as functional, tissue-based.

Activity calls are given as the source filed them. The calls are words filed in the database; no cut-off is given here.

In the case of `COc1ccccc1CN1CCC(C2CCN(C(=O)CCCCCCC(=O)N3CCC(C4CCN(Cc5ccccc5OC)CC4)CC3)CC2)CC1` [PIPERTRAMINE AMIDE], the result in assay [1], in assay [2], in [4], in [7], in assay [9] and in [10] was Active. Besides, the outcome in [11], in assay [12], in assay [13] and in [15] was Active. In addition, the result in [3], in assay [5] and in assay [14] was inactive. The inhibition entry in assay [6] was “Active”. The Efficacy in assay [8] is reported as 78%.

Turning to `COc1ccccc1CN1CCC(C2CCN(CCCCCCCCN3CCC(C4CCN(Cc5ccccc5OC)CC4)CC3)CC2)CC1` [PIPERTRAMINE], the outcome in assay [1], in assay [2], in [4], in assay [7], in [9] and in [10] was Active. Also, the outcome in [11], in [12], in assay [13] and in [15] was Active. The result in assay [3], in assay [5] and in assay [14] was inactive. In addition, the inhibition result in assay [6] was “Active”. The Efficacy in [8] amounted to 71%.

Values taken from ChEMBL document CHEMBL3044753, “Polyamines May Modulate Both G Protein-Coupled Receptors and G Proteins” (Med Chem Res, 2004).
